This passage reports logD results from the SangsterLogP compilation.

Molecules are shown by their SMILES.

A short description of the series: method code SF-AS, from PMID: 4559156. Particulars: pH 7.4.
Take `CC1(C)NC(=Nc2ncc([N+](=O)[O-])s2)OC1(C)C`: the logD was found to be 2.4.
For `O=[N+]([O-])c1cnc(NC2=NCCN2)s1` the value was 1.38.
With `CN1CCN=C1Nc1ncc([N+](=O)[O-])s1`, the logD turned out to be 1.8.
Take `O=[N+]([O-])c1cnc(N=C2NCC(O)CN2)s1` (stereo not given): the logD worked out at 0.74.
For `CC(=O)OCCN1CCS/C1=N/c1ncc([N+](=O)[O-])s1` the value was 1.88; for `CC1CNC(=Nc2ncc([N+](=O)[O-])s2)N1C` (stereo not given), 2.02; for `O=[N+]([O-])c1cnc(/N=C2/SCCN2CCO)s1`, 1.28.
For `O=[N+]([O-])c1cnc(N=C2NCCN2CCO)s1` the value was 1.23; for `CCN1CCNC1=Nc1ncc([N+](=O)[O-])s1`, 2.28.
Regarding `O=[N+]([O-])c1cnc(/N=C2/OCCN2CCO)s1`, the logD came to 0.43.
For `CC1CN(C)C(=Nc2ncc([N+](=O)[O-])s2)N1` (stereo not given) the value was 1.95; for `O=[N+]([O-])c1cnc(N=C2NCCO2)s1`, 0.57; for `CN1CCN(C)C1=Nc1ncc([N+](=O)[O-])s1`, 0.92.
For `CC1N=C(Nc2ncc([N+](=O)[O-])s2)OC1(C)C` (stereo not given) the value was 1.88; for `CN1CC(O)CN(C)C1=Nc1ncc([N+](=O)[O-])s1` (stereo not given), 0.16.
